Article PMC4104544 (Cell, 2014)

Biological target: OSBP (oxysterol-binding protein) (Homo sapiens, UniProt P22059)
Assay: cell-based

Sequence of OSBP (oxysterol-binding protein) (P22059 2-807): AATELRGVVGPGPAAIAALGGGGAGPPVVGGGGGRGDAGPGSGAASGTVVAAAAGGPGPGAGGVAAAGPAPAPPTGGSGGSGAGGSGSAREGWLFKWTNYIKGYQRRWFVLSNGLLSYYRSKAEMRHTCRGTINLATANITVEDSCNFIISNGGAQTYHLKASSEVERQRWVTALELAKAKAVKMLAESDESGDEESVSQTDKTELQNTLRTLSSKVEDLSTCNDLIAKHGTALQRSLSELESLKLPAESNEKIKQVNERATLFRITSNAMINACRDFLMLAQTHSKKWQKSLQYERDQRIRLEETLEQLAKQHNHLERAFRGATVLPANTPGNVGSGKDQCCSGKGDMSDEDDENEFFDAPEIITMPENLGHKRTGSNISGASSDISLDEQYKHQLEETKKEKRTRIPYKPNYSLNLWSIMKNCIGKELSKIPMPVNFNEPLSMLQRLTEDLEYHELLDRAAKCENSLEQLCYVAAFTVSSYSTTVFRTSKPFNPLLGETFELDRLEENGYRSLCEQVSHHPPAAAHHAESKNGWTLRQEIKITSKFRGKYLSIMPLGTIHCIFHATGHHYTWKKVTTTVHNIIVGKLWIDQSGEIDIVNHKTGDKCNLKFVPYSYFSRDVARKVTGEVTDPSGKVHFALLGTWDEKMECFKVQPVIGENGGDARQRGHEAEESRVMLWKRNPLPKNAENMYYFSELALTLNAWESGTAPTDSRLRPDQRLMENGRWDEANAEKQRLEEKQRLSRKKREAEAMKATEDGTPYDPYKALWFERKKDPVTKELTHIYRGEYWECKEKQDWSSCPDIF
Sequence of OSBP (oxysterol-binding protein) (O75344 whole entry partner): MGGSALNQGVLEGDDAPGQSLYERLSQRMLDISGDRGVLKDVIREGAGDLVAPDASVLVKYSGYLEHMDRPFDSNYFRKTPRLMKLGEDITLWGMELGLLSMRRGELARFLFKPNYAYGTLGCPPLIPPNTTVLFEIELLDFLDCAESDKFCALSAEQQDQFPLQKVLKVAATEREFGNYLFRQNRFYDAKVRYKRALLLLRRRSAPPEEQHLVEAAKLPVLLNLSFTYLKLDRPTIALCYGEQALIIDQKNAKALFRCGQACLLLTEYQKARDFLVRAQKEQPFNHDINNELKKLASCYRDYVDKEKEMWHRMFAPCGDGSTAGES

COc1ccc(C(=O)O[C@H]2[C@H](O[C@@H]3[C@@H](OC(C)=O)[C@H](O[C@H]4C[C@H]5[C@@H]6CC=C7C[C@@H](O)CC[C@]7(C)[C@H]6CC[C@]5(C)[C@@]4(O)[C@H](C)C(=O)CCC(C)C)OC[C@@H]3O)OC[C@@H](O)[C@@H]2O)cc1 [OSW-1]
EC50: 60 nM
